According to patent US10501460B2, “Heterocyclic compounds and uses thereof” (Plexxikon Inc., priority 2013, dated 2019):

Experiments:
[1] = tested on: bromodomain; assay: Bromodomain cell assays of Example 40 (at least one of them); assay type: cell-based; conditions: in at least one of the bromodomain cell assays described in Example 40
Procedure, shortened: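 Growth inhibition: 3000 MV-4-11, MOLM-13, MM.1S or neuroblastoma cells/well got an 8-point 1:3 series from 10 μM top (0.2% DMSO) for 72 h, then CellTiter-Glo luminescence. Myc reporter: MV-4-11 with E-box firefly luciferase, 24 h exposure, One-Glo luminescence plus CellTiter-Fluo cell count. pIC50 from four-parameter fit.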

[2] = tested on: MV-4-11; assay: Oncology cell growth assay MV-4-11 (CellTiter Glo, 72 hours); assay type: cell-based; conditions: Homo sapiens, MV4-11, 72 h; MV-4-11 cell growth inhibitory activity, 3d
Procedure, shortened: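 MV-4-11 cells (MLL-AF4 AML) exposed 72 h to 8-point 1:3 titration, top final 10 μM, 0.2% DMSO. CellTiter Glo luminescence as cell-number readout, normalized to DMSO controls; pIC50 from four-parameter fit.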

| SMILES | IC50 [1] [µM] | IC50 [2] [µM] |
| --- | --- | --- |
| Cc1noc(C)c1-c1cnc2c(-c3cnn(C)c3)cn(Cc3ccccc3Cl)c2c1 [P-0193, 4-[1-[(2-chlorophenyl)methyl]-3-(1-methylpyrazol-4-yl)pyrrolo[3,2-b]pyridin-6-yl]-3,5-dimethyl-isoxazole] | < 10 | ≤ 1 |
| Cc1noc(C)c1-c1cnc2c(-c3cnn(C)c3)cn(Cc3ccccc3OC(F)(F)F)c2c1 [P-0194, 3,5-dimethyl-4-[3-(1-methylpyrazol-4-yl)-1-[[2-(trifluoromethoxy)phenyl]methyl]pyrrolo[3,2-b]pyridin-6-yl]isoxazole] | < 10 | ≤ 1 |
| Cc1noc(C)c1-c1cnc2c(-c3cnn(C)c3)cn(Cc3cccnc3)c2c1 [P-0195, 3,5-dimethyl-4-[3-(1-methylpyrazol-4-yl)-1-(3-pyridylmethyl)pyrrolo[3,2-b]pyridin-6-yl]isoxazole] | < 10 | ≤ 1 |
| Cc1noc(C)c1-c1cnc2ccn(C(CC#N)C3CCCC3)c2c1 (stereo not shown) [P-0196, 3-cyclopentyl-3-[6-(3,5-dimethylisoxazol-4-yl)pyrrolo[3,2-b]pyridin-1-yl]propanenitrile] | < 10 | ≤ 1 |
| Cc1noc(C)c1-c1cnc2c(-c3cnn(C)c3)cn(C(CC#N)C3CCCC3)c2c1 (stereo not shown) [P-0197, 3-cyclopentyl-3-[6-(3,5-dimethylisoxazol-4-yl)-3-(1-methylpyrazol-4-yl)pyrrolo[3,2-b]pyridin-1-yl]propanenitrile] | < 10 | ≤ 1 |
| Cc1noc(C)c1-c1cnc2c(-c3cnn(C)c3)cn(Cc3ccccn3)c2c1 [P-0198, 3,5-dimethyl-4-[3-(1-methylpyrazol-4-yl)-1-(2-pyridylmethyl)pyrrolo[3,2-b]pyridin-6-yl]isoxazole] | < 10 | ≤ 1 |
| Cc1noc(C)c1-c1cnc2c(-c3cn[nH]c3)cn(C(C)c3ccccc3)c2c1 (stereo not shown) [P-0199, 3,5-dimethyl-4-[1-(1-phenylethyl)-3-(1H-pyrazol-4-yl)pyrrolo[3,2-b]pyridin-6-yl]isoxazole] | < 10 | ≤ 1 |
| CCn1cc(-c2cn(C(C)c3ccccc3)c3cc(-c4c(C)noc4C)cnc23)cn1 (stereo not shown) [P-0200, 4-[3-(1-ethylpyrazol-4-yl)-1-(1-phenylethyl)pyrrolo[3,2-b]pyridin-6-yl]-3,5-dimethyl-isoxazole] | < 10 | ≤ 1 |
| C=CCn1cc(-c2cn(C(C)c3ccccc3)c3cc(-c4c(C)noc4C)cnc23)cn1 (stereo not shown) [P-0201, 4-[3-(1-allylpyrazol-4-yl)-1-(1-phenylethyl)pyrrolo[3,2-b]pyridin-6-yl]-3,5-dimethyl-isoxazole] | < 10 | ≤ 1 |
| COCCn1cc(-c2cn(C(C)c3ccccc3)c3cc(-c4c(C)noc4C)cnc23)cn1 (stereo not shown) [P-0203, 4-[3-[1-(2-methoxyethyl)pyrazol-4-yl]-1-(1-phenylethyl)pyrrolo[3,2-b]pyridin-6-yl]-3,5-dimethyl-isoxazole] | < 10 | ≤ 1 |
| Cc1noc(C)c1-c1cnc2c(-c3cnn(C4CCOC4)c3)cn(C(C)c3ccccc3)c2c1 (stereo not shown) [P-0204, 3,5-dimethyl-4-[1-(1-phenylethyl)-3-(1-tetrahydrofuran-3-ylpyrazol-4-yl)pyrrolo[3,2-b]pyridin-6-yl]isoxazole] | < 10 | ≤ 1 |
| Cc1nn(C)cc1-c1cn(C(C)c2ccccc2)c2cc(-c3c(C)noc3C)cnc12 (stereo not shown) [P-0205, 4-[3-(1,3-dimethylpyrazol-4-yl)-1-(1-phenylethyl)pyrrolo[3,2-b]pyridin-6-yl]-3,5-dimethyl-isoxazole] | < 10 | ≤ 1 |
| Cc1noc(C)c1-c1cnc2c(-c3cnn(C)c3)cn(C(C(=O)O)c3ccccc3)c2c1 (stereo not shown) [P-0206, 2-[6-(3,5-dimethylisoxazol-4-yl)-3-(1-methylpyrazol-4-yl)pyrrolo[3,2-b]pyridin-1-yl]-2-phenyl-acetic acid] | < 10 | 1 to 10 |
| Cc1noc(C)c1-c1cnc2c(-c3cnn(C)c3)cn(C(C(=O)NC3CC3)c3ccccc3)c2c1 (stereo not shown) [P-0207, N-cyclopropyl-2-[6-(3,5-dimethylisoxazol-4-yl)-3-(1-methylpyrazol-4-yl)pyrrolo[3,2-b]pyridin-1-yl]-2-phenyl-acetamide] | < 10 | ≤ 1 |
| Cc1noc(C)c1-c1cnc2c(-c3cnn(C)c3)cn(CC3CCC(F)(F)CC3)c2c1 [P-0209, 4-[1-[(4,4-difluorocyclohexyl)methyl]-3-(1-methylpyrazol-4-yl)pyrrolo[3,2-b]pyridin-6-yl]-3,5-dimethyl-isoxazole] | < 10 | ≤ 1 |

Further lines, results first:

| IC50 [1] [µM] | IC50 [2] [µM] | SMILES |
| --- | --- | --- |
| < 10 | ≤ 1 | Cc1noc(C)c1-c1cnc2c(-c3cnn(C)c3)cn(C(C)c3ccccc3)c2c1 (stereo not shown) [P-0161, 3,5-dimethyl-4-[3-(1-methylpyrazol-4-yl)-1-(1-phenylethyl)pyrrolo[3,2-b]pyridin-6-yl]isoxazole] |
| < 10 | ≤ 1 | Cc1noc(C)c1-c1cnc2c(-c3cn[nH]c3)cn(S(=O)(=O)c3ccccc3)c2c1 [P-0163, 4-[1-(benzenesulfonyl)-3-(1H-pyrazol-4-yl)pyrrolo[3,2-b]pyridin-6-yl]-3,5-dimethyl-isoxazole] |
| < 10 | ≤ 1 | Cc1noc(C)c1-c1cnc2[nH]cc(P(C)(=O)c3ccccc3)c2c1 (stereo not shown) [P-0165, 3,5-dimethyl-4-[3-[methyl(phenyl)phosphoryl]-1H-pyrrolo[2,3-b]pyridin-5-yl]isoxazole] |
| < 10 | ≤ 1 | Cc1noc(C)c1-c1cnc2c(-c3cn[nH]c3)cn(S(=O)(=O)C3CCCC3)c2c1 [P-0167, 4-[1-cyclopentylsulfonyl-3-(1H-pyrazol-4-yl)pyrrolo[3,2-b]pyridin-6-yl]-3,5-dimethyl-isoxazole] |
| < 10 | ≤ 1 | Cc1noc(C)c1-c1cnc2c(-c3cnn(C4CCCCO4)c3)cn(S(=O)(=O)c3ccccc3)c2c1 (stereo not shown) [P-0168, 4-[1-(benzenesulfonyl)-3-(1-tetrahydropyran-2-ylpyrazol-4-yl)pyrrolo[3,2-b]pyridin-6-yl]-3,5-dimethyl-isoxazole] |
| < 10 | ≤ 1 | Cc1nc(Cn2cc(-c3cnn(C)c3)c3ncc(-c4c(C)noc4C)cc32)cs1 [P-0170, 3,5-dimethyl-4-[3-(1-methylpyrazol-4-yl)-1-[(2-methylthiazol-4-yl)methyl]pyrrolo[3,2-b]pyridin-6-yl]isoxazole] |
| < 10 | ≤ 1 | Cc1noc(C)c1-c1cnc2c(-c3cnn(C)c3)cn(Cc3cscn3)c2c1 [P-0171, 3,5-dimethyl-4-[3-(1-methylpyrazol-4-yl)-1-(thiazol-4-ylmethyl)pyrrolo[3,2-b]pyridin-6-yl]isoxazole] |
| < 10 | ≤ 1 | Cc1noc(C)c1-c1cnc2c(-c3cnn(C)c3)cn(Cc3ccccc3F)c2c1 [P-0172, 4-[1-[(2-fluorophenyl)methyl]-3-(1-methylpyrazol-4-yl)pyrrolo[3,2-b]pyridin-6-yl]-3,5-dimethyl-isoxazole] |
| < 10 | ≤ 1 | Cc1noc(C)c1-c1cnc2c(-c3cnn(C)c3)cn(Cc3c(F)cccc3F)c2c1 [P-0173, 4-[1-[(2,6-difluorophenyl)methyl]-3-(1-methylpyrazol-4-yl)pyrrolo[3,2-b]pyridin-6-yl]-3,5-dimethyl-isoxazole] |
| < 10 | ≤ 1 | Cc1noc(C)c1-c1cnc2c(-c3cnn(C(F)F)c3)cn(Cc3ccccc3F)c2c1 [P-0176, 4-[3-[1-(difluoromethyl)pyrazol-4-yl]-1-[(2-fluorophenyl)methyl]pyrrolo[3,2-b]pyridin-6-yl]-3,5-dimethyl-isoxazole] |
| < 10 | ≤ 1 | Cc1noc(C)c1-c1cnc2c(c1)c(S(=O)(=O)c1ccccc1)cn2-c1cnn(C)c1 [P-0185, 4-[3-(benzenesulfonyl)-1-(1-methylpyrazol-4-yl)pyrrolo[2,3-b]pyridin-5-yl]-3,5-dimethyl-isoxazole] |
| < 10 | ≤ 1 | CCOC(=O)C(c1ccccc1)n1cc(-c2cnn(C)c2)c2ncc(-c3c(C)noc3C)cc21 (stereo not shown) [P-0186, ethyl 2-[6-(3,5-dimethylisoxazol-4-yl)-3-(1-methylpyrazol-4-yl)pyrrolo[3,2-b]pyridin-1-yl]-2-phenyl-acetate] |
| < 10 | ≤ 1 | Cc1noc(C)c1-c1cnc2c(-c3cnn(C)c3)cn(C(CF)c3ccccc3)c2c1 (stereo not shown) [P-0187, 4-[1-(2-fluoro-1-phenyl-ethyl)-3-(1-methylpyrazol-4-yl)pyrrolo[3,2-b]pyridin-6-yl]-3,5-dimethyl-isoxazole] |
| < 10 | ≤ 1 | Cc1noc(C)c1-c1cnc2c(-c3cnn(C)c3)cn(Cc3ccccc3C(F)(F)F)c2c1 [P-0188, 3,5-dimethyl-4-[3-(1-methylpyrazol-4-yl)-1-[[2-(trifluoromethyl)phenyl]methyl]pyrrolo[3,2-b]pyridin-6-yl]isoxazole] |
| < 10 | ≤ 1 | Cc1noc(C)c1-c1cnc2c(-c3cnn(C)c3)cn(Cc3c(Cl)cccc3Cl)c2c1 [P-0189, 4-[1-[(2,6-dichlorophenyl)methyl]-3-(1-methylpyrazol-4-yl)pyrrolo[3,2-b]pyridin-6-yl]-3,5-dimethyl-isoxazole] |
| < 10 | ≤ 1 | Cc1noc(C)c1-c1cnc2c(-c3cnn(C)c3)cn(Cc3cc(F)ccc3Cl)c2c1 [P-0190, 4-[1-[(2-chloro-5-fluoro-phenyl)methyl]-3-(1-methylpyrazol-4-yl)pyrrolo[3,2-b]pyridin-6-yl]-3,5-dimethyl-isoxazole] |
| < 10 | ≤ 1 | Cc1noc(C)c1-c1cnc2c(-c3cnn(C)c3)cn(C(CO)c3ccccc3)c2c1 (stereo not shown) [P-0192, 2-[6-(3,5-dimethylisoxazol-4-yl)-3-(1-methylpyrazol-4-yl)pyrrolo[3,2-b]pyridin-1-yl]-2-phenyl-ethanol] |
